How the values were obtained:
[1] = target: T1, human CYP11B2 (Homo sapiens, UniProt P19099); test: In vitro activity assay of monoclonal cells overexpressing human CYP11B2; assay type: cell-based; conditions: G402 cells overexpressing human CYP11B2; substrate 11-deoxycorticosterone; 16 hours; aldosterone by LCMS/MS
T1 construct: expressed in transfected cells; host or cells: human renal leiomyoma G402 cell line (monoclonal cells overexpressing human CYP11B2)
T1 sequence (P19099 25-503): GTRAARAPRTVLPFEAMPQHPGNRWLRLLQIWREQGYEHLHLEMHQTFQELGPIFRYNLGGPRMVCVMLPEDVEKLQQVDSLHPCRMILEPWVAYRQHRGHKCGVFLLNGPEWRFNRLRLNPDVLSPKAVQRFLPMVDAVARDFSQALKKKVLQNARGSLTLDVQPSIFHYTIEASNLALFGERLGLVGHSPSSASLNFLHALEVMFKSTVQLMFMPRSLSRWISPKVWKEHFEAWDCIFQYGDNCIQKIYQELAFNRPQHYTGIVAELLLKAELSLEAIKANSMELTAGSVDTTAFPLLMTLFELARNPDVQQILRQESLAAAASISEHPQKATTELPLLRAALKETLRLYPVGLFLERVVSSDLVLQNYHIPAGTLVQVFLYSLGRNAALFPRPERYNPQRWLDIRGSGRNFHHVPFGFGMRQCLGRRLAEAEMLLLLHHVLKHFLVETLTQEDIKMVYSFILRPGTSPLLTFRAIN
Protocol: The human renal leiomyoma G402 cell line overexpressing human CYP11B2 was selected to serve as a compound activity screening system.
• 2) Compound details: The test compound was prepared as a 10 μM working concentration using DMSO.
Day 1: Cells were digested, and human renal leiomyoma G402 cells overexpressing human CYP11B2 were resuspended to 1×10^5 cells/mL, with 100 μL seeded into a 96-well plate.
Day 2: The medium was replaced with DMEM/F12 containing 2.5% charcoal-stripped fetal bovine serum; test compounds were added: 5 μL of test compound was added to the cell culture medium to achieve final concentrations of 10000, 2500, 625, 156.25, 39.06, 9.77, 2.44, 0.61, 0.15, and 0 nM (with a DMSO content of 0.1%).
After one hour, the substrate was added: 30 mM 11-deoxycorticosterone was diluted 1500-fold with culture medium, and 5 μL was dispensed per well to achieve a final concentration of […], followed by incubation for 16 hours.
(§1) Day 3: The cell supernatant was collected and added to 200 μL of a methanol solution containing internal standards (internal standards: 35 ng/mL ketoprofen or 7.5 ng/mL carbamazepine or 5 ng/mL diphenhydramine or 10 ng/mL tolbutamide). The mixture was vortexed and centrifuged (4000×g, 4° C., 5 minutes). Then, 100 μL of the supernatant was taken and mixed with 100 μL of pure water. The mixture was centrifuged (4000 g, 4° C., 15 min), and the supernatant was analyzed by ESI-LCMS/MS. • 4) Data analysis:
Ratio=Aldosterone peak area/Internal standard peak area
Control activity %=(Ratio test compound/Ratio DMSO)×100%
“Ratio test compound” represents the Ratio values at different concentrations of the test compound.
“Ratio DMSO” represents the Ratio value without the addition of the test compound. • X=Log (compound concentration) • Y=Control activity %
(§2) The IC50 of the test compound was determined by fitting to a nonlinear regression equation using XLfit 5.5.0.

[2] = target: T2, human CYP11B1 (Homo sapiens, UniProt P15538); test: In vitro activity assay of monoclonal cells overexpressing human CYP11B1; assay type: cell-based; conditions: G402 cells overexpressing human CYP11B1; substrate 11-deoxycortisol 1 μM; 16 hours
T2 construct: expressed in transfected cells; host or cells: human renal leiomyoma G402 cell line (monoclonal cells overexpressing human CYP11B1)
T2 sequence (P15538 25-503): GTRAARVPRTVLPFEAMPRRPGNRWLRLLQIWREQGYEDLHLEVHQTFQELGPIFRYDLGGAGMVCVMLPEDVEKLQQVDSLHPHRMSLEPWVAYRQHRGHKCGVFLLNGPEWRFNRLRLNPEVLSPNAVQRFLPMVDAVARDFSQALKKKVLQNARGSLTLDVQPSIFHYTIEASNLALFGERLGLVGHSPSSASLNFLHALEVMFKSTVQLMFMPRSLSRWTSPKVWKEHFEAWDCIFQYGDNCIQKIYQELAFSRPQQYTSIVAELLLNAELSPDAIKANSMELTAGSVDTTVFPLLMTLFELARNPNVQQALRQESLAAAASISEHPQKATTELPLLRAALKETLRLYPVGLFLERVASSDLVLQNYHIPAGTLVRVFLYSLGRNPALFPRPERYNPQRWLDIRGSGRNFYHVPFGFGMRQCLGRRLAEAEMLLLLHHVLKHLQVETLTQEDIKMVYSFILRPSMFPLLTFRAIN
Protocol: The human renal leiomyoma G402 cell line overexpressing human CYP11B1 was selected to serve as a compound selectivity screening system. Details are as follows: • 1) The cells, reagents, and instrument information were consistent with Experimental Example 1 (activity of monoclonal cells overexpressing human CYP11B2). • 2) Compound details: The test compound was prepared as a […] working concentration using DMSO. • 3) Experimental procedure
Day 1: Cells were digested, and human renal leiomyoma G402 cells overexpressing CYP11B1 were resuspended to 1×10^5 cells/mL, with […] seeded into a 96-well plate.
Day 2: The medium was replaced with DMEM/F12 containing 2.5% charcoal-stripped fetal bovine serum.
After one hour, the substrate was added: 30 mM 11-deoxycortisol was diluted 1500-fold with culture medium, and 5 μL was dispensed per well to achieve a final concentration of 1 μM, followed by incubation for 16 hours.
as §1, with “The mixture was vortexed and centrifuged (4000×g, 4° C., 5 minutes). Then, 100 μL of the supernatant was taken and mixed with 100 μL of pure water.” left out, “analysis: […]” for “analysis:”
as §2

[3] = system: plasma protein; test: Plasma protein binding rate test, human (equilibrium dialysis); assay type: in vitro ADME; conditions: 37° C., 4 hours
Text: (§3) The sample was thoroughly mixed.

[4] = system: plasma protein; test: Plasma protein binding rate test, cynomolgus monkey (equilibrium dialysis); assay type: in vitro ADME; conditions: 37° C., 4 hours
Text: as §3

[5] = system: MDR1-MDCKII cells; test: Permeability test in MDR1-MDCKII monolayer cell model; assay type: in vitro ADME; conditions: 2 μM, pH 7.40, 2.5 hours, 37±1° C.
Protocol: Experimental objective: The permeability and efflux ratio of the compound of the present disclosure were determined using the MDR1-MDCKII monolayer cell model to assess its membrane permeability and potential for P-gp-mediated efflux transport.
Experimental protocol: MDR1-MDCKII cells (obtained from the Netherlands Cancer Institute) were seeded in 96-well plates (obtained from Corning) at a cell density of 3.33×10^5 cells/mL and cultured for 4 to 7 days to form confluent cell monolayers. Hank's balanced salt solution containing 10 mM HEPES (pH 7.40) was used as the transport buffer. The test compound was evaluated for bidirectional transport at a concentration of 2 μM, with the DMSO concentration in the incubation system maintained below 1%. After adding the samples, the cell plate was incubated at 37±1° C., 5% CO2, and saturated humidity for 2.5 hours. All samples were quantitatively analyzed using the LC-MS/MS method. The apparent permeability coefficient (Papp, cm/s) and efflux ratio (ER) were calculated using the following formula. Apparent permeability coefficient (Papp, cm/s) was calculated using the following formula: Papp=(dCr/dt)×Vr/(A×C0). Herein, dCr/dt represents the cumulative concentration of the compound at the receiving end per unit time (μM/s); Vr is the volume of the solution at the receiving end (with solution volumes at the apical and basolateral ends being 0.075 mL and 0.250 mL, respectively); A is the relative surface area of the cell monolayer (0.143 cm^2); C0 is the initial concentration of the test substance at the dosing end (μM) or the peak area ratio of the reference substance. The efflux ratio was calculated using the following formula: ER=Papp(BA)/Papp(AB).

| IC50 [1] [nM] | IC50 [2] [µM] | Human plasma protein binding rate (%) [3] [%] | Plasma protein binding rate (%) in cynomolgus monkeys [4] [%] | Apparent permeability coefficient (Papp (AB)) [5] | Structure (SMILES) |
| --- | --- | --- | --- | --- | --- |
| 48.7 | 6.89 | – | – | – | CCC(=O)N[C@@H]1CCCc2c(-c3cnc4c(ccc(=O)n4C)c3)cncc21 (single isomer, unassigned) [Compound 022] |
| – | – | 70.5 | 66.4 | 11.0 10^-6 cm/s | CCC(=O)N[C@H]1CCOc2c(-c3ccc4c(ccc(=O)n4C)c3)cncc21 (single isomer, unassigned) [Compound 044] |
